The nature of data set [1]: method code SF-HPLC, from DOI: 10.1021/js990112s, PMID: 10585226.

As to `Cc1cnc(-c2ccccc2)c(-c2ccccc2)n1`, the logP turned out to be 3.52. On the same count and under the same terms, for `COc1ccc(-c2ncc(C#N)nc2-c2ccc(OC)cc2)cc1` the value was 3.7; for `COc1ccccc1Cc1cnc(-c2ccccc2)c(-c2ccccc2)n1`, 5.2; for `c1ccc(-c2nccnc2-c2ccccc2)cc1`, 3.19. `COC(=O)c1cnc(-c2ccc(OC)cc2)c(-c2ccc(OC)cc2)n1`: the logP stood at 3.41. Same read-out and setting: in the case of `COc1cnc(-c2ccccc2)c(-c2ccccc2)n1` it was 4.21; in that of `Cc1nc(Cl)c(C)nc1Cl`, 2.4; in that of `COc1ccc(-c2nccnc2-c2ccc(OC)cc2)cc1`, 3.42. Still for that read-out and setting: in the case of `Brc1ccc(-c2nccnc2-c2ccc(Br)cc2)cc1` it was 3.41; in that of `Cc1ncc(C)[n+]([O-])c1Cl`, 0.19. As to `Cc1c[n+]([O-])c(C)c(Cl)n1`, the logP turned out to be 0.44. On the same count and under the same terms, in the case of `COc1ccc(-c2ncc(Cl)nc2-c2ccc(OC)cc2)cc1` it was 4.3. `CCc1nc(-c2ccccc2)cnc1-c1ccccc1` gave a logP of 4.94.

Regarding `Cc1nc(Cl)c(C)[n+]([O-])c1Cl`, the log partition coefficient (logP) is 1.08. `COc1ccc(-c2ncc(OC)nc2-c2ccc(OC)cc2)cc1` had a lipophilicity (logP) of 4.47. For `Cc1nc(-c2ccccc2)cnc1-c1ccccc1`, the logP is 4.28.

Regarding `Cc1ccc(-c2nccnc2-c2ccc(C)cc2)cc1`, the log partition coefficient (logP) was 4.1. `c1ccc(-c2cnccn2)cc1` yielded a logP in data set [1] of 2.07. For `CCOc1cnc(-c2ccc(OC)cc2)c(-c2ccc(OC)cc2)n1`, the logP was 4.22. The same measure, in the same setting: for `COc1ccc(-c2ncc(C)nc2-c2ccc(OC)cc2)cc1` the value was 3.66. The same measure, in the same setting: in the case of `[O-][n+]1cc(Cl)nc(-c2ccc(Cl)cc2)c1-c1ccc(Cl)cc1` it was 3.66. Consider `N#Cc1ccc(-c2nccnc2-c2ccc(C#N)cc2)cc1`, for which the logP came to 2.52. The same measure, in the same setting: in the case of `CC(C)c1cnc(-c2ccccc2)c(-c2ccccc2)n1` it was 4.71.

For `COc1ccc(-c2cnccn2)cc1`, the log partition coefficient (logP) in data set [1] is 2.24. Compound `Cc1nc(C)c(-c2ccccc2)nc1-c1ccccc1` yielded a log partition coefficient (logP) of 4.83.

`COc1ccc(-c2nc(C)c(C)nc2-c2ccc(OC)cc2)cc1` displayed a logP of 4.1. Still for that read-out and setting: for `Clc1cnc(-c2ccccc2)c(-c2ccccc2)n1` the value was 4.05; for `CCOc1cnc(-c2ccccc2)c(-c2ccccc2)n1`, 4.73; for `Fc1ccc(-c2nccnc2-c2ccc(F)cc2)cc1`, 3.75.

The term logP denotes the decadic logarithm of the partition coefficient of the neutral form, usually between octanol and water. The low end stands for a more hydrophilic compound, the high end for a more lipophilic compound.

Values taken from the SangsterLogP compilation.
